Numbers after ± are expanded uncertainties.

For this series the following is noted: Crystal; DTA.
Consider `CCCCNC(=O)c1cc(C(=O)NCCCC)cc(C(=O)NCCCC)c1` [N,N',N''-tributyl-1,3,5-benzenetricarboxamide], for which the Normal melting temperature was 229.00 ± 1 °C.

With `CC(C)(C)NC(=O)c1cc(C(=O)NC(C)(C)C)cc(C(=O)NC(C)(C)C)c1` [N,N',N''-tris(tert-butyl)-1,3,5-benzenetricarboxamide], the Normal melting temperature was determined as 304.00 ± 1 °C.

For the compound `CC(C)CNC(=O)c1cc(C(=O)NCC(C)C)cc(C(=O)NCC(C)C)c1` [N,N',N''-tris(2-methylpropyl)-1,3,5-benzenetricarboxamide], the Normal melting temperature turned out to be 300.00 ± 1 °C.

For the origin of these results see the NIST ThermoML archive (doi:10.1016/j.tca.2017.07.003).
